We go through two molecules from PMC8805215, “Crystal structure of a short-chain dehydrogenase/reductase from Burkholderia phymatum in complex with NAD” (Acta Crystallographica. Section F, Structural Biology …, 2022).

For one data set, the target named is T1, BpSDR (Paraburkholderia phymatum, UniProt B2JGP2).
T1 construct: gene Bphy_1038; residues 1-289, noncleavable N-terminal His6 tag (MAHHHHHHM-ORF), vector pBG1861, E. coli BL21(DE3); SEC monomer or dimer, prototypical SDR dimers by crystal symmetry
Kind of data set: X-ray crystal structure, […] Å. Conditions: co-crystallised with 4 mM NAD, pH 4.5-4.6, 14 °C; cofactor-binding domain; acetate from crystallisation solution in substrate site.

Data set [1] concerns the molecule itself. The data set is described as follows: crystal structure; space group C222(1), 1.80 A, three monomers in the asymmetric unit, with NAD and acetate; dimers generated by crystallographic symmetry.

Consider `NC(=O)c1ccc[n+]([C@@H]2O[C@H](COP(=O)(O)OP(=O)(O)OC[C@H]3O[C@@H](n4cnc5c(N)ncnc54)[C@H](O)[C@@H]3O)[C@@H](O)[C@H]2O)c1` [NAD], for which the “X-ray crystal structure, 1.80 Å” value on BpSDR is “each monomer having an acetate molecule in the substrate-binding domain and a NAD molecule”.

B1: short-chain dehydrogenase/reductase from Burkholderia phymatum (enzyme)
chain: MFEFDGKVAVITGAGSGFGRAFAEKGASLGMKLVLADVDEGALARTVDTLRAAGAEVIGVRTDVSNGAQVQALADAALEAFGKVHLLFNNAGVGAGGFLWESSANDWAWVFGVNVMGVAHGVRVFAPIMLGQNEAAHIVNTASVAGLLSPPSMGIYNASKHAVVSLTETLYHDLRNAGGEVGCSLLCPAFVPTGIADAERVRPEALRNEAQPTRSQLAADRQLQRAVRSGKLGATDVATLTFEAIAERRFYILTHPAILATVRLRHEDIELQRNPTDPLSLKPEVKEAR
notes: short-chain dehydrogenase/reductase, Burkholderia phymatum STM815, UniProt B2JGP2, amino acids 1-289; Crystallised with 4 mM NAD; each monomer holds NAD and an acetate; 278 residues of each monomer are seen in the structure; also called BpSDR; SDR from B. phymatum; source: E. coli BL21(DE3), purified (IMAC, SEC); not shown: His6 (MAHHHHHH, noncleavable hexahistidine fusion tag from the vector …)
As to B1, the binding result in data set [1] is “binds”.
